From US10364230B2, “Chromene-2 derivatives and use thereof in the treatment of fibrosis” (ALTAY THERAPEUTICS, INC., priority 2014, dated 2019)

Columns and labels:
[1] = tested on: TGFbeta-induced collagen synthesis in L929 cells; experiment: TGFbeta-induced total collagen synthesis in L929 cells (sircol dye); type: cell-based; settings: 50 micromole CP1 for 1 hour, then 5 ng/ml Mouse TGFβ2, 72 hours, FIG. 1
From the text: (§1) The present invention is about novel compounds which may offer alternative treatment options against IPF, which believed to develop as a consequences of smoking, pollution, allergens, toxins and seen in people who are older than 50 years old. The compounds mentioned in this application have been generated from “6,7-dimethoxy 2H-chromen-one (1), which was identified from local medicinal plants during our screening studies. The anti-fibrotic activity of this compound (“6,7-dimethoxy 2H-chromen-one (I) against TGF beta-induced collagen synthesis using 1.929 cells has been identified. For this, in 96-well plates, 1.929 cells were cultured in DMEM supplemented with % 10 serum, 10 μg/ml ascorbic acid and 20 μM prolin until they reached to confluency. Confluent cells were treated with 50 micromole of our compound (named as CP1) dissolved in DMSO for 1 hour, then 5 ng/ml of Mouse TGFβ2 was added and cells were further incubated for 72 hours at incubator supplied with 5% CO2 and 80% humidity. At the end of this incubation one of the plate was used to determine cell viability by using MTT test, FIG. 2. The second 96-well plate was used to determine the level of total collagen. […] Absorbance of developed color was determined at 600 nm. […] In addition to total collagen, we also determined the level of “secreted collagen” by using ELISA. […]

[2] = tested on: TGFbeta-induced secreted collagen synthesis in L929 cells; experiment: TGFbeta-induced secreted collagen in L929 cells (anti-collagen type I ELISA); type: cell-based; settings: 50 micromole CP1, 5 ng/ml Mouse TGFβ2, 72 hours, culture supernatant, FIG. 3
From the text: as §1

COc1cc2ccc(=O)oc2cc1OC [CP1, 6,7-dimethoxy 2H-chromen-2-one]
TGFβ-induced collagen level in the presence of CP1, compared to control cells ([1]; TGFβ alone induced % 20): 10% | inhibition of TGFβ-induced collagen synthesis ([1]; total collagen, sircol, absorbance 600 nm): 50% | effect on TGFβ-induced secreted collagen level [2]: significantly inhibits
